Experimental data as given in US8466311B2, “Neuroprotective compositions and methods” (Sanford-Burnham Medical Research Institute, priority 2006, dated 2013).
Entries after “also recorded” stand apart in the source; their conditions may differ.

Key:
GSH [1] = assay: Brain GSH and GSSG after feeding CA; format: in vivo, mouse; conditions: food containing 0.03% CA for a week
Protocol: Mice were fed 0.03% CA for 1 week, and their brains were then removed, lysed and subjected to GSH and GSSG measurement.
Measurement of brain GSH. After exsanguination via heart puncture under ether anesthesia, mouse brains were removed and quickly frozen in liquid nitrogen. We ruled out GSH as a contaminant from blood vessels by HPLC analysis of blood components in the brain lysates.
The frozen brains were lysed with 1% sulfosalicylic acid on ice for 10 min, and total glutathione (reduced and oxidized) was determined as described previously (Sagara et al., 2002). Briefly, after the lysates had been incubated on ice for 10 min, the supernatants were collected after centrifugation in Eppendorf microfuge tubes. Upon neutralization of each supernatant with triethanolamine, the total glutathione (reduced and oxidized) concentration was determined. Pure GSH was used to obtain the standard curve. For the determination of oxidized GSH, the method of Griffith using 2-vinylpyridine was used to deplete the reduced GSH.
Mice were allowed free access to food containing 0.03% CA for a week. Their brains were then removed, and extracts were prepared and measured for GSH and GSSG levels. Under these conditions, CA increased both total GSH+GSSG and the ratio of GSH/GSSG (FIG. 6). […]

[2] = biological target: T1, bovine serum albumin (BSA) (Bos taurus, UniProt P02769); assay: Adduct formation with free cysteine of BSA (streptavidin blot); format: binding; conditions: NEM pretreatment
T1 construct: purchased WAKO Chemicals Inc. (Tokyo, Japan) or Sigma (St. Louis, Mo.)
Protocol: We tested whether the free cysteine of bovine serum albumin (BSA) could form an adduct with NEPP compounds. If carbon #11 on the NEPP compounds binds to this free cysteine of BSA, then pretreatment with N-ethylmaleimide (NEM), in irreversible thiol alkylating agent, would abolish this binding. […] With streptavidin as a probe, we could then detect proteins bound to NEPP6-biotin. In order to study thiols as targets of NEPP binding, BSA (1 μg per lane) was incubated with various concentrations (0-1000 μM) of N-ethylmaleimide (NEM) for 30 minutes at room temperature. Vehicle or NEPP6-biotin (10 μM) in phosphate-buffered saline (PBS) was added and the mixture was incubated at room temperature for 5 h, subjected to sodium dodecyl sulfate polyacrylamide gel electrophoresis (SDS-PAGE), and probed with peroxidase-conjugated streptavidin. The gel was also stained with Coomassie brilliant blue.

[3] = tested on: immature cortical neurons; assay: Oxidative stress (glutamate or rotenone) in immature cortical cultures; format: cell-based, rat; conditions: CA 3 μM
Text: Primary cortical cultures and assays for two types of glutamate toxicity. Cerebrocortical neurons have been used as an in vitro system in order to investigate the cellular mechanism of neuronal death caused by glutamate. The level of expression of functional NMDA receptors is key for determining whether excitotoxicity or oxidative glutamate toxicity predominates. With increasing days in vitro (DIV), the expression level of these receptors in cortical cultures increases. […] In light of this background information, in the present study, we prepared cerebrocortical cultures from embryonic day 17 (E17) Sprague-Dawley rats and examined them at DIV2 as an experimental system for oxidative glutamate toxicity (Murphy et al., FASEB J. 4:1624-1633, 1990; Lee et al., J. Biol. Chem. 278:37948-37956, 2003). Rotenone, a complex I inhibitor of the mitochondrial electron-transport chain, also induces oxidative stress in immature cortical cultures (Murphy et al., FASEB J. 4:1624-1633, 1990; Lee et al., J. Biol. Chem. 278:37948-37956, 2003).
CA protects cortical neurons via activation of the Keap1/Nrf2 pathway. […] Glutamate (2 mM) and rotenone (300 nM) decreased the number of MAP2 and NeuN-positive cells to 30.8±2.5% and 25.8±1.9% of the control value, respectively. In contrast, CA (3 μM) increased cell survival in the face of these insults to 73.8±3.7% and 80.4±3.4%, respectively.

[4] = tested on: cAMP-responsive element (CRE); assay: Enhancer element luciferase reporter p3xCREluc; format: cell-based; conditions: NEPP11 2 μM
Protocol: (§1) Because the E1 and E2 regions also contain other enhancer elements, we tested the effects of NEPP11 (2 μM) on the expression of luciferase activity derived from these elements, including the cAMP-responsive element (CRE; p3xCREluc), AP-1 binding site (p3xAP1luc), NF-κB binding site (p3xNF-κBluc), NFAT-binding site (p3xNFATluc), ETS-binding site (p3xETSluc), and MEF2-binding site (p3xMEF2luc).

HO-1 protein = assay: Induction of HO-1 protein in HT22 cells (Western blot); format: cell-based; conditions: 24 h, at NEPP concentration that prevented neuronal cell death
Protocol: HT22 cells (Satoh et al., Eur. J. Neurosci. 17:2249-2255, 2003; Satoh et al., J. Neurochem. 77:50-62, 2001; Sagara et al., J. Biol. Chem. 277:36204-36215, 2002) and primary cortical neurons (Bonfoco et al., Proc. Natl. Acad. Sci. USA 92:7162-7166, 1995) were cultured as described.
These assays were performed as described (Gu et al., Science 297:1186-1190, 2002) by using the following antibodies: anti-HO-1 (SPA895, 1:1000, Santa Cruz Biotechnology), anti-Keap1 (1:100, Santa Cruz Biotechnology), or anti-actin (1:5,000, Oncogene Research Products, San Diego).
Thereafter, cell lysates (10 μg per lane) were subjected to SDS-PAGE and probed with anti-HO-1 or anti-β-actin.

ARE probe = assay: EMSA with biotin-labeled ARE probe, HT22 nuclear lysates; format: cell-based; conditions: HT22 cells, NEPP11 1 μM, 8 h
Protocol: Electrophoretic mobility shift assays (EMSAs). Double-stranded antioxidant-responsive elements (AREs) were labeled by using a biotin 3′-end DNA labeling kit (Pierce). Nuclear lysates were incubated with the labeled probe for 20 min at room temperature, resolved on an 8% native polyacrylamide gel, and transferred to Hybond-N^+ (Amersham Pharmacia). Signals were visualized with peroxidase-conjugated streptavidin (Pierce).
To confirm that NEPP11 leads to an increase in transcription factors, including Nrf2, that bind to the ARE, we performed EMSAs. HT22 cells were incubated for 8 h with vehicle or NEPP11 (1 μM). EMSAs were performed by using 10 μg of nuclear lysates per lane and a biotin-labeled ARE probe. In one lane, anti-Nrf2 antibody (100×) was added to supershift Nrf2 protein binding to ARE probe. In another lane, an excess amount of non-labeled probe was added to the sample to compete out the labeled ARE probe from binding to proteins in the nuclear lysates. […] The band representing the labeled ARE probe was shifted in the presence of control lysates, indicating binding of endogenous transcription factors to the ARE. […] In contrast, the band was totally abrogated in the presence of excess unlabeled probe. […]

ETS-binding site = assay: Enhancer element luciferase reporter p3xETSluc; format: cell-based; conditions: NEPP11 2 μM
Protocol: as §1

GSH [5] = assay: Total GSH levels in cortical cultures; format: cell-based; conditions: cortical cultures, control 46.8±4.5 nmol/mg protein
Protocol: Cell cultures, transfection, and glutathione (GSH) measurement. […] Transfection was performed with Lipofectamine 2000 (Invitrogen). In the reporter gene assays, firefly luciferase activity in cell lysates was measured with a luminometer (Promega). Total GSH (reduced and oxidized) was determined as described (Lee et al., Biochem. Biophys. Res. Commun. 280:286-292, 2001).
One caveat to the mechanism of NEPP and other electrophilic compounds acting at the level of Keap1 to induce HO-1 transcription is that NEPP could potentially react indiscriminately with other thiol-containing compounds in cells. To approach this question, we assessed cellular glutathione (GSH) levels to determine whether NEPP11 would affect this abundant antioxidant thiol. Nepp11 or N-ethylmaleimide (NEM) was added at t=0 and levels of total GSH were measured at the indicated times. GSH content of control cortical cultures (set arbitrarily at 100%) was 46.8±4.5 nmol/mg protein. […] In fact, this scenario seems likely, because the Keap1/Nrf2 pathway regulates the expression of γ-GCL in addition to HO-1 (Itoh et al., Mol. Cell. Biol. 24:36-45, 2004). […]
Transfections were performed with Lipofectamine 2000 (Invitrogen), and firefly luciferase activity in cell lysates was measured with a luminometer in the reporter gene assays (Promega).

T1 sequence (P02769 25-607): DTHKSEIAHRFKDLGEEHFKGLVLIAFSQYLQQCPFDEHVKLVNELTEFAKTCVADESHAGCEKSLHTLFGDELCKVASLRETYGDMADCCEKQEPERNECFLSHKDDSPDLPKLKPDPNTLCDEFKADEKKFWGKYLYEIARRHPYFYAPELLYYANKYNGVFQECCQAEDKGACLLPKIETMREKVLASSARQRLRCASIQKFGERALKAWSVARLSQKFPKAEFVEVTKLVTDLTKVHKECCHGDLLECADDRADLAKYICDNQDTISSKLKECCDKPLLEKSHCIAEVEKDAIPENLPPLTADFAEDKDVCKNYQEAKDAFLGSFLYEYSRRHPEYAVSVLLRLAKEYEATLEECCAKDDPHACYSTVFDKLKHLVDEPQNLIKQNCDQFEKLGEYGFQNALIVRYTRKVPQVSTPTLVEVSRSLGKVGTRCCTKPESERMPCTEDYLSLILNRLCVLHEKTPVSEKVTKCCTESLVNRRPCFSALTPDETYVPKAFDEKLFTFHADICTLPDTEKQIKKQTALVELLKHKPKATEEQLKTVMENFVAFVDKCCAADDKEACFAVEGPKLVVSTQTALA

| SMILES | ratio of GSH/GSSG in brain (GSH [1]) | total GSH+GSSG in brain (GSH [1]) | BSA adduct signal after pretreatment with NEM [2] | cell survival (MAP2 and NeuN-positive cells), % of the control value ([3]; glutamate 2 mM, glutamate alone 30.8±2.5%) [%] | cell survival (MAP2 and NeuN-positive cells), % of the control value ([3]; rotenone 300 nM, rotenone alone 25.8±1.9%) [%] | activity of p3xCREluc [4] | HO-1 protein levels over baseline (HO-1 protein) | shifted ARE probe band intensity (ARE probe) | activity of p3xETSluc (ETS-binding site) | total GSH levels (GSH [5]) |
| --- | --- | --- | --- | --- | --- | --- | --- | --- | --- | --- |
| CC(C)c1cc2c(c(O)c1O)[C@@]1(C(=O)O)CCCC(C)(C)[C@@H]1CC2 [CA, carnosic acid] | increased | increased | depressed the streptavidin signal in a dose-dependent manner | 73.8±3.7 | 80.4±3.4 |  |  |  |  |  |
| COC(=O)CCCCC/C=C1/C(=O)C=C[C@H]1CCCCCCc1ccc(C)cc1 [NEPP11] |  |  |  |  |  | slightly depressed | approximately five-fold | significant increase in the intensity of this band | slightly depressed | did not deplete GSH levels; also recorded: transiently increased |
